≈ marks a conversion by molar mass, not a printed value. Square brackets hold non-standard residues; d marks the D form. Ends that are not written are not given here. Peptide text beside a SMILES is read from it. Dap = NC[C@H](N)C(=O)O
Tests used:
[1] = tested on: E. coli D31; assay type: cell-based; details: Mueller Hinton broth, ~10^5 CFU/mL, 18 hours at 37°C, OD600, lowest concentration with no visible growth, average of 3 independent samples
[2] = tested on: P. aeruginosa (ATCC:10145); assay type: cell-based; details: ATCC:10145, 18 h
[3] = tested on: K. pneumonia (ATCC: 700603); assay type: cell-based, K. pneumoniae; details: 18 h
[4] = tested on: S. aureus (ATCC: 27660); assay type: cell-based; details: ATCC: 27660, 18 h

Compound: CC[C@H](C)[C@H](NC(=O)CNC(=O)[C@H](CN)NC(=O)[C@H](Cc1ccccc1)NC(=O)[C@H](CC(C)C)NC(=O)[C@H](CN)NC(=O)[C@H](CN)NC(=O)[C@H](C)NC(=O)[C@H](CN)NC(=O)[C@H](CN)NC(=O)[C@H](Cc1ccccc1)NC(=O)CNC(=O)[C@H](CN)NC(=O)[C@H](C)NC(=O)[C@H](Cc1c[nH]c2ccccc12)NC(=O)[C@@H](NC(=O)[C@H](CN)NC(=O)[C@@H](NC(=O)[C@H](CC(C)C)NC(=O)[C@H](CN)NC(=O)[C@@H](N)CN)[C@@H](C)CC)C(C)C)C(=O)NCC(=O)O [PBP-X] (H-[Dap][Dap]LI[Dap]VWA[Dap]GF[Dap][Dap]A[Dap][Dap]LF[Dap]GIG-OH)
- MIC [1]: 1.88 µM (≈ 4.02 µg/mL)
- MIC [2]: 3.75 µM (≈ 8.02 µg/mL)

Compound: KKLIKVFAKGFKKAKKLWKGIG [PBP-W18]
- MIC [2]: 1.88 µM
- MIC [3]: 1.88 µM
- MIC [4]: 0.94 µM

Compound: KKLIKVFAKGWKKAKKLFKGIG [PBP-W11]
- MIC [2]: 1.88 µM
- MIC [3]: 1.88 µM
- MIC [4]: 0.47 µM

Compound: KKLIKVWAKGFKKAKKLFKGIG [PBP]
- MIC [1]: 0.94 µM
- MIC [2]: 1.88 µM
- MIC [3]: 1.88 µM
- MIC [4]: 0.94 µM

Compound: KKAAKAWAKGAKKAKKLAKGAG [PBP-A]
- MIC [1]: >15 µM
- MIC [2]: >15 µM
- MIC [3]: >15 µM

Source: paper PMC6324581 (Peptide science (Hoboken, N.J.), 2018)
